Test results from patent US11351140B2, “Resolvin mimetic antibodies and uses thereof” (J. Craig Venter Institute, Inc., priority 2017, dated 2022).

T1: ERV-1 receptor (CHO-ERV-1 positive cells) (Homo sapiens, UniProt Q99788)
T1 construct: host or cells: CHO-K1/CMKLR1/Ga15 (CHO ERV1+)
T1 sequence (Q99788 1-373): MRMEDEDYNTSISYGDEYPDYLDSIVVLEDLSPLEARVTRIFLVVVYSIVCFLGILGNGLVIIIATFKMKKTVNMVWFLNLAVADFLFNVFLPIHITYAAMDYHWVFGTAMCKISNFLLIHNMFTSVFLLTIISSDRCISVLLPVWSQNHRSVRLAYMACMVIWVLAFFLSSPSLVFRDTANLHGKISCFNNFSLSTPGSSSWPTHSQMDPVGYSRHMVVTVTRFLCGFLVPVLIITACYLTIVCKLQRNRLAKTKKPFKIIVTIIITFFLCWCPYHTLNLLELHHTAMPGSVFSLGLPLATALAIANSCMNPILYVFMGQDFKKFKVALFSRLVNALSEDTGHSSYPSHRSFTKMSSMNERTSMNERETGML

B1: C4: resolvimab, anti-ERV-1 monoclonal antibody; VH SEQ ID NO: 14, VK SEQ ID NO: 16 (antibody, V domains shown)
VH: EVKLEESGAELVMPGASVKLSCKASGYTFTSYWMHWVKQRPGQGLEWVAEIDPSDSYTNYNQKFKGKATLTVDKSSSTAYMQLSSLTSEDSAVYYCARDGDILTTVVAKGFVYWGQGTLV
VL: LSLPVSLGDQASISCRSSQTIVHSNGNTYLEWYLQKPGQSPKLLIYKVSNRFSGVPDRFSGSGSGTDFTLKISRVEAEDLGVYYCFQGSHVPWTFGGGTKLEIK
modifications: Immunoglobulin VH Region; Immunoglobulin VL(K) region

How the values were obtained:
[1] = target: T1, ERV-1 receptor (CHO-ERV-1 positive cells); assay: Intracellular calcium signaling (Calcium5 FLIPR) in CHO ERV1+ cells; assay type: cell-based; settings: 1, 10, 100 nM
Protocol: To investigate calcium mobilization, cells were transferred to a 96-well plate at density of 60,000 cells per well in 80 μl of growth medium 18 hours prior to the day of experiment and maintained at 37° C./5% CO2.
After aspiration of the media, cells were labeled with the fluorescent probe, Calcium5 FLIPR (Medical Devices). After agonist treatment, detection of changes in fluorescence were detected by microplate reader and expressed as change in relative fluorescence units (ΔRFU).
To investigate calcium mobilization, CHO ERV1+ cells were transferred to a 96-well plate at density of 60,000 cells per well in 80 μl of growth medium 18 hours prior to the day of experiment and maintained at 37° C./5% CO2. After aspiration of the media, cells were labeled with the fluorescent probe, Calcium5 FLIPR (Medical Devices). After agonist treatment, detection of changes in fluorescence were detected by microplate reader and expressed as change in relative fluorescence units (ARFU).
To determine whether the immune complexes between ERV-1 receptor and various anti-ERV-1 antibodies permit the bound immune complex to interact with ERV-1 cellular receptor functions, an in vitro assay was devised. To that end, calcium intracellular signaling was measured upon agonist ligand binding. […] After 20 seconds, calcium mobilization was measured through fluorescence (FIG. 15). […]

ERV1tg mice = assay: Zymosan-induced peritonitis, peritoneal lavage cells by flow cytometry; assay type: in vivo; settings: injected together with zymosan; 12 hours of inflammation
Protocol: Cells were extracted from peritoneal exudates collected after 12 hours of intraperitoneal injection of zymosan-A (1 mg/ml in PBS). Isolated cells were incubated with anti-Fc receptor (BD) blocking antibody (5 μg/ml×106 cells, 15 min) and then labeled with anti-human ERV1 alexafluor 488-conjugated antibody (10 μg/ml×106 cells, 1 hour at RT) or anti-IgG alexafluor 488 (isotype control, R&D Systems). Expression of ERV1 on neutrophils was evaluated by immunofluorescence and quantified by flow cytometry. ERV-1, […] positive monocytes were stained with PE-conjugated anti-mouse Arg-1 and FITC-conjugated anti-mouse EGR-(10 μg/ml×106 cells, 1 hour at RT) (BD Biosciences).
Peritonitis was initiated by zymosan particle injections […] to ERV1tg mice peritoneal tissues. It had been previously established that Resolvin-E1 could affect inflammation-related responses in an ERV-1 dependent manner in vivo in cells derived from diabetic subjects (Freire, M. et al., J. Immunol. 198(2):718-728 (2017)). To further understand the biological response induced by resolvimabs, purified clones were injected together with the zymosan stimuli (FIGS. 9A-D). […] We have looked if these compound would influence the phenotype of neutrophils and monocytes after 12 hours of inflammation in vivo.

Molecule	agonist functions (calcium intracellular signaling) [1]	inflammatory infiltrate (flow cytometry quantification) (ERV1tg mice)
CC[C@@H](O)/C=C/C=C\C[C@@H](O)/C=C/C=C/C=C\[C@@H](O)CCCC(=O)O [resolvinE-1, resolvin E1]	found	–
B1	–	decrease
